Data: patent US20250230193A1, “CYCLIC COMPOUND HAVING SELECTIVE KRAS INHIBITORY EFFECT ON HRAS AND NRAS” (CHUGAI SEIYAKU KABUSHIKI KAISHA, priority 2022, published 2025)
Where a SMILES comes first, the peptide text is derived from it. Bridges are numbered along the chain shown (N, C = ends). [ ]: non-standard residue; d: D form. hPhe(3-Cl-4-CF3) = N[C@@H](CCc1ccc(C(F)(F)F)c(Cl)c1)C(=O)O; NPrPhe(4-CF3) = CCCN[C@@H](Cc1ccc(C(F)(F)F)cc1)C(=O)O; NMeGly(cPent) = CN[C@H](C(=O)O)C1CCCC1; Hyp = O=C(O)[C@@H]1C[C@@H](O)CN1; NMeD = CN[C@@H](CC(=O)O)C(=O)O; NMeL = CN[C@@H](CC(C)C)C(=O)O; Ac5c = NC1(C(=O)O)CCCC1; NEtG = CCNCC(=O)O; Sar = CNCC(=O)O

Assays:
[1] = biological target: GDP-bound HRAS wild-type protein (Homo sapiens, UniProt P01112); test: Binding to HRAS by surface plasmon resonance (SPR), Single Cycle Kinetics; details: for HRAS/KRAS (ratio of KD value for HRAS to KD value for KRAS): GDP-bound HRAS wild-type vs GDP-bound KRAS wild-type
Chain of GDP-bound HRAS wild-type protein (P01112 whole entry): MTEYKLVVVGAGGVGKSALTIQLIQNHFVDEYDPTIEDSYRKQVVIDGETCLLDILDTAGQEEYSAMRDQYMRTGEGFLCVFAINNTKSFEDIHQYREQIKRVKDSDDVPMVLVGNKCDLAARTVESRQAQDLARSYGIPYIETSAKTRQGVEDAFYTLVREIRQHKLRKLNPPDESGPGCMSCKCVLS

[2] = biological target: GDP-bound NRAS wild-type protein (Homo sapiens, UniProt P01111); test: Binding to NRAS by surface plasmon resonance (SPR), Single Cycle Kinetics; details: for NRAS/KRAS (ratio of KD value for NRAS to KD value for KRAS): GDP-bound NRAS wild-type vs GDP-bound KRAS wild-type
Chain of GDP-bound NRAS wild-type protein (P01111 whole entry): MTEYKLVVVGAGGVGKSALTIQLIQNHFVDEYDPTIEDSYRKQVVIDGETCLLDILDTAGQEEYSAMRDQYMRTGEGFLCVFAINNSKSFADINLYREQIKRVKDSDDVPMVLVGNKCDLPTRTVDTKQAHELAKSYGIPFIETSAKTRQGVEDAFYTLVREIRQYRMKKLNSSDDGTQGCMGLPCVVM

CCC(CC)[C@H]1C(=O)N(C)[C@H](C(=O)N(C)C)CC(=O)N(C)[C@@H](COC)C(=O)N[C@@H]([C@@H](C)CC)C(=O)N(C)CC(=O)N(C)[C@H]2C/C=C\CCN(C2=O)[C@@H](Cc2ccc(C(F)(F)F)cc2)C(=O)N(C)CC(=O)N[C@@H](CCc2ccc(C(F)(F)F)c(Cl)c2)C(=O)N2CC3(CC3)C[C@H]2C(=O)NC2(CC(C)(C)C2)C(=O)N1C [PP2965]
HRAS/KRAS (ratio of KD value with respect to GDP-bound HRAS wild-type protein to KD value with respect to KRAS) ([1]; class symbols): A (a compound having 10 or more and less than 20 is denoted as A)
NRAS/KRAS (ratio of KD value with respect to GDP-bound NRAS wild-type protein to KD value with respect to KRAS) ([2]; class symbols): AA (a compound having 20 or more is denoted as AA)

CCC(CC)[C@H]1C(=O)N(C)[C@H](C(=O)N(C)C)CC(=O)N(C)[C@@H](COC)C(=O)N[C@@H]([C@@H](C)CC)C(=O)N(C)CC(=O)N(C)[C@H]2C/C=C\CCN(C2=O)[C@@H](Cc2ccc(C)cc2)C(=O)N(C)CC(=O)N[C@@H](CCc2ccc(C(F)(F)F)c(OC)c2)C(=O)N2CCOC[C@H]2C(=O)NC2(CC(C)(C)C2)C(=O)N1C [PP2938]
HRAS/KRAS (ratio of KD value with respect to GDP-bound HRAS wild-type protein to KD value with respect to KRAS) ([1]; class symbols): A (a compound having 10 or more and less than 20 is denoted as A)
NRAS/KRAS (ratio of KD value with respect to GDP-bound NRAS wild-type protein to KD value with respect to KRAS) ([2]; class symbols): AA (a compound having 20 or more is denoted as AA)

CC[C@H](C)[C@@H]1NC(=O)[C@@H]2CCCCCN2C(=O)C[C@@H](C(=O)N2CCOCC2)N(C)C(=O)[C@H](C2CCCC2)N(C)C(=O)C2(CCCC2)NC(=O)[C@@H]2CCCN2C(=O)[C@H](CCc2cc(F)c(C(F)(F)F)c(F)c2)NC(=O)CN(C)C(=O)[C@H](Cc2ccc(C(F)(F)F)cc2)N2CCCCC[C@@H](C2=O)N(C)C(=O)CN(C)C1=O [PP0521]
HRAS/KRAS (ratio of KD value with respect to GDP-bound HRAS wild-type protein to KD value with respect to KRAS) ([1]; SPR): B (a compound having 3 or more and less than 10 is denoted as B)
NRAS/KRAS (ratio of KD value with respect to GDP-bound NRAS wild-type protein to KD value with respect to KRAS) ([2]; SPR): B (a compound having 3 or more and less than 10 is denoted as B)

C=CC[C@@H]1NC(=O)[C@H](CC2CC2)N(C)C(=O)C[C@@H](C(=O)N(C)CC=C)N(C)C(=O)[C@H](C2CCCC2)N(C)C(=O)C2(CCC2)NC(=O)[C@@H]2C[C@@H](OCC)CN2C(=O)[C@H](CCc2cc(F)c(C(F)(F)F)c(F)c2)NC(=O)CN(C)C(=O)[C@H](Cc2ccc(C(F)(F)F)cc2)N2CC/C=C\C[C@@H](C2=O)N(C)C(=O)CN(C)C1=O [PP1557]
HRAS/KRAS (ratio of KD value for GDP-bound HRAS wild-type protein to KD value for KRAS) ([1]; SPR, KD ratio class): A (a compound having 10 or more and less than 20 is denoted as A)
NRAS/KRAS (ratio of KD value for GDP-bound NRAS wild-type protein to KD value for KRAS) ([2]; SPR, KD ratio class): A (a compound having 10 or more and less than 20 is denoted as A)

CCO[C@@H]1C[C@H]2C(=O)NC3(CCC3)C(=O)N(C)[C@@H](C3CCCC3)C(=O)N(C)[C@H](C(=O)N(C)CC)CC(=O)N(C)[C@H]3CCC/C=C/c4ccc(cc4)C[C@@H](C(=O)N(C)CC(=O)N[C@@H](CCc4ccc(C(F)(F)F)c(OC)c4)C(=O)N2C1)N1CC/C=C\C[C@@H](C1=O)N(C)C(=O)CN(C)C(=O)[C@H]([C@@H](C)CC)NC3=O [PP1834]
HRAS/KRAS (ratio of KD value for HRAS to KD value for KRAS) ([1]; SPR): B (a compound having 3 or more and less than 10 is denoted as B)
NRAS/KRAS (ratio of KD value for NRAS to KD value for KRAS) ([2]; SPR): A (a compound having 10 or more and less than 20 is denoted as A)

CCOC[C@H]1C(=O)N[C@@H]([C@@H](C)CC)C(=O)N(C)CC(=O)N(C)[C@H]2C/C=C\CCN(C2=O)[C@@H](Cc2ccc(C(F)(F)F)cc2)C(=O)N(C)CC(=O)N[C@@H](CCc2ccc(C(F)(F)F)c(OC)c2)C(=O)N2C[C@@H](C)C[C@H]2C(=O)NC2(CCC2)C(=O)N(C)[C@@H](C2CCCC2)C(=O)N(C)[C@H](C(=O)N(C)CC)CC(=O)N1C [PP2026]
HRAS/KRAS (ratio of KD value for HRAS to KD value for KRAS) ([1]; SPR): A (a compound having 10 or more and less than 20 is denoted as A)
NRAS/KRAS (ratio of KD value for NRAS to KD value for KRAS) ([2]; SPR): A (a compound having 10 or more and less than 20 is denoted as A)

CCCN1C(=O)CN(C)C(=O)CN(CC)C(=O)[C@H]([C@@H](C)CC)NC(=O)[C@H](CC(C)C)N(C)C(=O)C[C@@H](C(=O)N(C)C)N(C)C(=O)[C@H](C2CCCC2)N(C)C(=O)C2(CCCC2)NC(=O)[C@@H]2C[C@@H](OCC)CN2C(=O)[C@H](CCc2ccc(C(F)(F)F)c(Cl)c2)NC(=O)CN(C)C(=O)[C@@H]1Cc1ccc(C(F)(F)F)cc1 [PP0427] ([NMeL]I[NEtG][Sar][NPrPhe(4-CF3)][Sar][hPhe(3-Cl-4-CF3)][Hyp](Et)[Ac5c][NMeGly(cPent)][NMeD]-NMe2; lactam N-11)
HRAS/KRAS (ratio of KD value with respect to GDP-bound HRAS wild-type protein to KD value with respect to KRAS) ([1]; SPR): C (A compound having a KD ratio of 0.1 or more and less than 3 is denoted as C)
NRAS/KRAS (ratio of KD value with respect to GDP-bound NRAS wild-type protein to KD value with respect to KRAS) ([2]; SPR): B (a compound having 3 or more and less than 10 is denoted as B)
